The text below walks through data of publication PMC9126943, “ADAMTS4-specific MR probe to assess aortic aneurysms in vivo using synthetic peptide libraries” (Nature Communications, 2022).

The assay concerns the target T1, ADAMTS4 (Homo sapiens, UniProt O75173).
T1 construct: This is consistent with the recombinant proteins, we used in the screening process; purchased BioTeZ Berlin-Buch GmbH 30 400 102
T1 sequence (O75173 213-685): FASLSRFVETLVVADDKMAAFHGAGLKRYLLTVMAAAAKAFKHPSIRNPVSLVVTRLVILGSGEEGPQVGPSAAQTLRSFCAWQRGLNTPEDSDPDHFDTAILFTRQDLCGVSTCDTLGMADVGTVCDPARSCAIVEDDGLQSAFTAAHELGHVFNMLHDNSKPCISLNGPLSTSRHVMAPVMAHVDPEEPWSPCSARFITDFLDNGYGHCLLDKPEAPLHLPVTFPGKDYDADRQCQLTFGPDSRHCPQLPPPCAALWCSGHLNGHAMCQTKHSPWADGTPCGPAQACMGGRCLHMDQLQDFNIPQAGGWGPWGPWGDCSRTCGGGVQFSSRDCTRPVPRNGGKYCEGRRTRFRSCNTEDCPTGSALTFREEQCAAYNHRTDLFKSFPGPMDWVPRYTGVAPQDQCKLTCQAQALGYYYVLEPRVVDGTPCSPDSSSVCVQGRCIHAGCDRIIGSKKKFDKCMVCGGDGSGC
Briefly: MST of earlier manuscript version (RED-tris-NTA labeled protein). As to conditions: earlier manuscript version quoted in peer review file; RED-tris-NTA labeled ADAMTS4, FAM-5 labeled peptides; read-out: binding constant (KD). The source says:
on the beads. Additionally, we could not find any traces of proteins in the MALDI-TOF-MS […]
We identified one candidate as the most promising binding peptide for ADAMTS4 with the sequence Ser- Cys*-Gly-Arg-Arg-Ser-Cys* (Supp. Fig. 1b, c).
5. “The representation of SPR data needs to be adjusted, additional experimental details have to be added to the Supplemental figures. Please, see the comments in Supplemental for details.” We apologize to the reviewer for this oversight. All data are now added to the supplemental material. SPR was only use for classification to determine whether the peptides represent potential […]
Page 8: For the resulting ADAMTS4- specific probe, we measured a binding constant of 38 nM […]
6. […] The data quality if […]
unfortunately too poor (the amplitude too low; minimal recommended amplitude is 3). Also, why were the FAM-5 labeled peptides used in the combination with the RED-tris-NTA labeled protein? […]
Additionally, we measured the same probe against ADAMTS1 and ADAMTS5 in the same concentration range, and we could not detect binding in this range (Supp. Fig. 2a). […]
R = Ranti−His−Ab ∗ MADAMTS4 ∗ Valencyanti−His−Ab we calculated a Rmax of 5524 µRIU. […]
Before and after the run, a blank was measured. […]
19. […] Using the fluorescence of the labeled […]
We added the sensogram and calculated the protein capture (please refer to question 16).

Where a SMILES comes first, the peptide text is derived from it. Bridges are numbered along the chain shown (N, C = ends). The star is where a group is joined. DOTA = O=C(O)CN1CCN(CC(=O)O)CCN(CC(=O)*)CCN(CC(=O)O)CC1

Take `N=C(N)NCCC[C@@H]1NC(=O)[C@H](CCCNC(=N)N)NC(=O)[C@H](CO)NC(=O)[C@@H](N)CSSC[C@@H](C(=O)N[C@@H](CO)C(=O)NCC(=O)NCC(=O)N[C@@H](CO)C(=O)NCC(=O)NCC(=O)N[C@@H](CCCCNC(=O)CN2CCN(CC(=O)O)CCN(CC(=O)O)CCN(CC(=O)O)CC2)C(=O)NCC(N)=O)NC(=O)CNC1=O` (Gd complex, metal not drawn) [ADAMTS4-specific probe] (H-CSRRGCSGGSGGK(DOTA)G-NH2; disulfide 1-6): the Kd is 38 nM.
